Experimental data reported in PubChem BioAssay (NCI).
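Interpolation was linear, between the two tested concentrations surrounding the appropriate level; five concentrations were tested over 48 hours in 96-well plates. GI50 is the concentration that inhibits growth by half. TGI is the concentration that stops growth completely.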

Columns and labels:
Assay in all cases: growth of human tumour cells (NCI), 48 h; in the data active = GI50 below about 0.43 µM; inactive = the rest
[1] = test system: U251 CNS
[2] = test system: CCRF-CEM leukemia
[3] = test system: SW-620 colon
[4] = test system: LOX IMVI melanoma
[5] = test system: HCT-116 colon
[6] = test system: MDA-MB-231 breast
[7] = test system: OVCAR-8 ovarian
[8] = test system: SNB-19 CNS
[9] = test system: NCI-H23 lung
[10] = test system: K-562 leukemia
[11] = test system: COLO 205 colon
[12] = test system: UACC-62 melanoma
[13] = test system: NCI-H460 lung
[14] = test system: MALME-3M melanoma
[15] = test system: BT-549 breast
[16] = test system: SK-MEL-28 melanoma
[17] = test system: OVCAR-3 ovarian
[18] = test system: HT29 colon
[19] = test system: SK-OV-3 ovarian
[20] = test system: UO-31 renal
[21] = test system: TK-10 renal
[22] = test system: RXF 393 renal
[23] = test system: UACC-257 melanoma
[24] = test system: HCT-15 colon
[25] = test system: MOLT-4 leukemia
[26] = test system: SN12C renal
[27] = test system: IGROV1 ovarian
[28] = test system: HOP-62 NSCLC
[29] = test system: SF-268 CNS
[30] = test system: HL-60(TB) leukemia
[31] = test system: SK-MEL-5 melanoma
[32] = test system: MDA-MB-435
[33] = test system: NCI-H522 lung
[34] = test system: SNB-75 CNS
[35] = test system: HCC-2998 colon
[36] = test system: NCI/ADR-RES ovarian
[37] = test system: SR leukemia
[38] = test system: KM12 colon
[39] = test system: 786-0 renal
[40] = test system: M14 melanoma
[41] = test system: OVCAR-4 ovarian
[42] = test system: A549 NSCLC
[43] = test system: MCF7 breast
[44] = test system: OVCAR-5 ovarian
[45] = test system: T-47D breast
[46] = test system: HS 578T breast
[47] = test system: HOP-92 NSCLC
[48] = test system: SF-539 CNS
[49] = test system: SK-MEL-2 melanoma
[50] = test system: RPMI-8226 leukemia
[51] = test system: SF-295 CNS
[52] = test system: PC-3 prostate
[53] = test system: EKVX NSCLC
[54] = test system: A498 renal
[55] = test system: ACHN renal

C[C@@H]1CCC/C=C/[C@H]2C[C@@H](O)C[C@@H]2[C@@H](O)/C=C/C(=O)O1
225 nM: TGI [33]
> 33300 nM: TGI [1] | TGI [2] | TGI [5] | TGI [7] | TGI [8] | TGI [9] | TGI [10] | TGI [12] | TGI [13] | TGI [15] | TGI [19] | TGI [20] | TGI [23] | TGI [24] | TGI [25] | TGI [26] | TGI [27] | TGI [28] | TGI [29] | TGI [32] | TGI [34] | TGI [35] | TGI [36] | TGI [37] | TGI [39] | TGI [40] | TGI [41] | TGI [42] | TGI [43] | TGI [44] | TGI [46] | TGI [48] | TGI [51] | TGI [52] | TGI [53]
131 nM: TGI [11]
12000 nM: TGI [16]
327 nM: TGI [3]
258 nM: TGI [22]
109 nM: TGI [31]
1280 nM: TGI [47]
5160 nM: TGI [55]
171 nM: TGI [6]
236 nM: TGI [49]
166 nM: TGI [54]
401 nM: TGI [17]
1170 nM: TGI [14]
active: GI50 [1] 137 nM | GI50 [2] 130 nM | GI50 [3] 101 nM | GI50 [4] 67.7 nM | GI50 [5] 99.5 nM | GI50 [6] 69.7 nM | GI50 [7] 91.4 nM | GI50 [8] 167 nM | GI50 [9] 129 nM | GI50 [10] 141 nM | GI50 [11] 63 nM | GI50 [12] 138 nM | GI50 [13] 115 nM | GI50 [14] 86.8 nM | GI50 [15] 140 nM | GI50 [16] 40 nM | GI50 [17] 111 nM | GI50 [18] 96.1 nM | GI50 [19] 144 nM | GI50 [20] 116 nM | GI50 [21] 114 nM | GI50 [22] 49.8 nM | GI50 [23] 110 nM | GI50 [24] 112 nM | GI50 [25] 146 nM | GI50 [26] 114 nM | GI50 [27] 145 nM | GI50 [28] 145 nM | GI50 [29] 102 nM | GI50 [30] 97.3 nM | GI50 [31] 54.7 nM | GI50 [32] 136 nM | GI50 [33] 75.6 nM | GI50 [34] 23 nM | GI50 [35] 139 nM | GI50 [36] 104 nM | GI50 [37] 111 nM | GI50 [38] 84.5 nM | GI50 [39] 95.1 nM | GI50 [40] 93.2 nM | GI50 [41] 109 nM | GI50 [42] 127 nM | GI50 [43] 96.6 nM | GI50 [44] 136 nM | GI50 [45] 109 nM | GI50 [46] 21.1 nM | GI50 [47] 89.2 nM | GI50 [48] 149 nM | GI50 [49] 92 nM | GI50 [50] 104 nM | GI50 [51] 140 nM | GI50 [52] 125 nM | GI50 [53] 108 nM | GI50 [54] 59.5 nM | GI50 [55] 113 nM
961 nM: TGI [21]
3420 nM: TGI [38]
155 nM: TGI [4]
374 nM: TGI [30]
316 nM: TGI [18]
553 nM: TGI [50]
1360 nM: TGI [45]
